Values joined by “and” are separate entries in the source; they are usually repeats but may differ in a detail not shown here. Equal values may be shown once.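 Exposure lasted 48 hours, with cells grown in 96-well plates and compounds tested at five concentrations. At the GI50, growth is halved. At the TGI there is no net growth.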 Bounds are passed on as bounds.

Some test systems named below: HCT-15 colon; MDA-MB-435; IGROV1 ovarian; TK-10 renal; DU-145 prostate; HL-60(TB) leukemia; 786-0 renal; OVCAR-8 ovarian; SR leukemia; SF-295 CNS.
Holding throughout (experiment): DTP human tumour cell line panel, 48 h

As to `CC(=O)OCC1OC(n2c(-c3ccc(Cl)cc3)ccc(C#N)c2=S)C(OC(C)=O)C(OC(C)=O)C1OC(C)=O` (stereo not given), the TGI was > 100 µM in the test with HCT-15 colon; > 100 µM in the test on MDA-MB-435; > 100 µM with IGROV1 ovarian; 64.1 µM and > 100 µM in the test with TK-10 renal; > 100 µM in the test with DU-145 prostate; > 100 µM in the test on HL-60(TB) leukemia. The TGI is 55.8 µM and 72.9 µM in the test with 786-0 renal; > 100 µM with OVCAR-8 ovarian; > 100 µM with SR leukemia; 35 µM and > 100 µM in the test with SF-295 CNS. The GI50 in the test on IGROV1 ovarian was 44.3 µM and > 100 µM; with TK-10 renal, 29.4 µM and 62.3 µM; in the test on 786-0 renal it was 11.1 µM and 26.2 µM; in the test with OVCAR-8 ovarian, 16.4 µM and 34.9 µM; with SR leukemia, > 100 µM and 40.2 µM; in the test with SF-295 CNS it was 13.8 µM and > 100 µM.

With `Nc1ccc(C2=NN(c3ccccc3)C(c3ccc(Cl)cc3)C2)cc1` (stereo not given), the GI50 was 2620 nM with HCT-15 colon; 2510 nM in the test on MDA-MB-435; 2.89 µM in the test with IGROV1 ovarian; 2.13 µM in the test on TK-10 renal; 3.54 µM in the test with DU-145 prostate; 3.71 µM in the test with HL-60(TB) leukemia. The GI50 is 2.03 µM with 786-0 renal, 3.15 µM in the test with OVCAR-8 ovarian, 1.71 µM in the test on SR leukemia and 9 µM in the test with SF-295 CNS. Also, the TGI came to 7.9 µM with HCT-15 colon; 6.58 µM with MDA-MB-435; 8.15 µM with IGROV1 ovarian; 6.16 µM with TK-10 renal; 11.3 µM in the test with DU-145 prostate; 22.8 µM in the test with HL-60(TB) leukemia. Also, the TGI was determined as 4.22 µM in the test with 786-0 renal, 13.2 µM in the test with OVCAR-8 ovarian, 4.27 µM in the test with SR leukemia and 24.9 µM in the test with SF-295 CNS.

With `CC(C)(C)C(=O)c1c(C(F)(F)F)n([O-])c2ccccc2[n+]1=O`, the GI50 in the test with HCT-15 colon is 365 nM; in the test on MDA-MB-435 it was 606 nM; in the test with IGROV1 ovarian, 0.0505 µM; in the test with TK-10 renal it was 0.896 µM; in the test with DU-145 prostate, 0.356 µM; with HL-60(TB) leukemia it was 0.204 µM. Further, the GI50 is 0.729 µM in the test on 786-0 renal, 0.254 µM in the test on OVCAR-8 ovarian and 0.294 µM with SF-295 CNS. Besides, the TGI in the test on HCT-15 colon was 0.914 µM; in the test on MDA-MB-435, 1.68 µM; in the test on IGROV1 ovarian, 0.172 µM; in the test with TK-10 renal it was 2.18 µM; with DU-145 prostate, 0.892 µM; in the test on HL-60(TB) leukemia, 1.08 µM. The total growth inhibition concentration (TGI) was found to be 2.46 µM in the test with 786-0 renal, 1.35 µM with OVCAR-8 ovarian, 0.209 µM in the test on SR leukemia and 1.27 µM in the test on SF-295 CNS.

Consider `C=C1C(=O)O[C@H]2C[C@@H]1CC/C(C)=C/CC/C(C)=C/CC[C@H]2C`, for which the GI50 in the test on HCT-15 colon was 15700 nM; in the test on MDA-MB-435, 7510 nM; in the test with IGROV1 ovarian, 18.8 µM; in the test on TK-10 renal, 20 µM; in the test with DU-145 prostate it was 18 µM; in the test with HL-60(TB) leukemia, 7.14 µM. For the same compound, the GI50 is 14.3 µM with 786-0 renal, 15.7 µM with OVCAR-8 ovarian, 7.14 µM with SR leukemia and 13.4 µM in the test on SF-295 CNS. Moreover, the concentration for total growth inhibition (TGI) worked out at 32.9 µM with HCT-15 colon; 27.2 µM in the test with MDA-MB-435; 40 µM in the test with IGROV1 ovarian; 37.7 µM in the test on TK-10 renal; 33.5 µM in the test on DU-145 prostate; 16.2 µM in the test with HL-60(TB) leukemia. Moreover, the concentration for total growth inhibition (TGI) with 786-0 renal stood at 28.2 µM; in the test with OVCAR-8 ovarian, 39.3 µM; in the test with SR leukemia it was 15.2 µM; with SF-295 CNS, 32.7 µM.

For `CNC(=O)c1ccc(N2CCN(Cc3ccc4nc(C)c(=O)[nH]c4c3F)CC2)c(F)n1`, the GI50 in the test on HCT-15 colon was > 100000 nM; in the test on MDA-MB-435, > 100000 nM; with IGROV1 ovarian, > 100 µM; in the test on TK-10 renal, 72.3 µM; with DU-145 prostate it was > 100 µM; with HL-60(TB) leukemia, > 100 µM. For the same compound, the GI50 in the test with 786-0 renal is 47.4 µM; with OVCAR-8 ovarian it was 58.7 µM; with SR leukemia it was 63.1 µM; in the test on SF-295 CNS it was 48.5 µM. In addition, the TGI with HCT-15 colon, with MDA-MB-435, with IGROV1 ovarian, with TK-10 renal, in the test with DU-145 prostate and with HL-60(TB) leukemia was > 100 µM each time. The TGI in the test with 786-0 renal, in the test on OVCAR-8 ovarian, in the test on SR leukemia and with SF-295 CNS was > 100 µM in each case.

Regarding `CC(C)=CCc1c(OC(=O)c2c(C)cc(O)cc2O)cc(CO)c(CO)c1O`, the TGI in the test with HCT-15 colon worked out at 34.6 µM; in the test on MDA-MB-435, 45.9 µM; with IGROV1 ovarian, 62.2 µM; with TK-10 renal, 77.9 µM; with DU-145 prostate it was 70.4 µM; with HL-60(TB) leukemia, 19.1 µM. For the same compound, the total growth inhibition concentration (TGI) is > 100 µM with 786-0 renal, 63.9 µM with OVCAR-8 ovarian, 94.5 µM with SR leukemia and 37.5 µM in the test on SF-295 CNS.

As to `CCCC(=O)NC1=C(Cl)C(=O)c2ccccc2C1=O`, the concentration for total growth inhibition (TGI) in the test with HCT-15 colon came out at 12.2 µM; with MDA-MB-435, 13.3 µM; with IGROV1 ovarian, 17.9 µM; with TK-10 renal, 15.6 µM; in the test with DU-145 prostate, 20.9 µM; in the test with HL-60(TB) leukemia, 0.899 µM. The concentration for total growth inhibition (TGI) in the test with 786-0 renal was found to be 8.92 µM; with OVCAR-8 ovarian, 34.8 µM; with SR leukemia, 6.31 µM; with SF-295 CNS it was 17.1 µM.

Take `COc1cc(-c2cc3ncccc3c3nc(N)c4cccnc4c23)cc(OC)c1OC`: the GI50 with HCT-15 colon was 440 nM; in the test on MDA-MB-435, 45.5 nM; in the test on IGROV1 ovarian it was 1.56 µM; in the test with TK-10 renal, 1.15 µM; in the test with DU-145 prostate, 0.487 µM; in the test with HL-60(TB) leukemia, 0.217 µM. For the same compound, the GI50 in the test on 786-0 renal is 0.511 µM; in the test on OVCAR-8 ovarian it was 0.756 µM; with SR leukemia, 0.124 µM; in the test on SF-295 CNS it was 0.308 µM. Besides, the TGI in the test with HCT-15 colon is 61.9 µM; in the test with MDA-MB-435 it was 11.2 µM; in the test with IGROV1 ovarian it was > 100 µM; with TK-10 renal, 9.29 µM; with DU-145 prostate, 3.13 µM; in the test with HL-60(TB) leukemia, 0.717 µM. Also, the TGI in the test on 786-0 renal is 10.8 µM; in the test on OVCAR-8 ovarian, 46 µM; with SR leukemia, 4.97 µM; with SF-295 CNS, 15.5 µM.

Source of the values: PubChem BioAssay (NCI).
